{"source": "patent US5468744A", "about": "(priority 1994, dated 1995)", "key": {"[1]": {"assay": "Tail-flick test, analgesic activity in male CD1 mice (oral, 15 min)", "format": "in vivo", "conditions": "for ED50: Mus musculus, po, 0.25 h, read-out: ED50 (95% confidence interval), drug alone; for ED50 at 15 min (95% Cl's), Tramadol: tramadol component", "method": "For each of the ratios of individual drugs used in the drug combinations tested (Table I), stock solutions were prepared that corresponded to twice the dose of each drug having a concentration expressed in mgdrug(s) per 5 mL of distilled water. For example, in the case of the 1:20 tramadol:codeine ratio, 9.1 mg of tramadol hydrochloride (=8.0 mg of tramadol as the base) and 217.1 mg of codeine phosphate (=160.0 mg of codeine as the free base) were each dissolved in separate 5 mL vials of distilled water to form individual stock solutions. Equal volumes of each of the stock solutions were then combined to prepare the final desired drug combination per 10 mL of distilled water. […] Then 10 mL/kg of the stock solution was injected into the mouse. See, Table I. Each ratio was prepared separately in a similar manner and injected in a volume of 10 mL/kg per mouse.\nThe preparation of different ratios of a tramadol/oxycodone combination is effected by preparing a stock solution having a concentration expressed in mgdrugs per 10 mL of dissolved water. […] Each ratio was prepared separately in a similar manner and injected in a volume of 10 mL/kg per mouse.\nSome mice were dosed orally with the compositions as made in Example 1 and as shown in Table 1 and other mice were dosed orally with the compositions as made in Example 2 and as shown in Table II. The dosing volume was 10 mL/kg.\nAnalgesic activity was assessed employing the tail-flick test as described by F. D'Amour et al., J. Pharmacol. Exp. Ther., 72, 74 (1941). The test involved subjecting the tail of a mouse to a focused heat stimulus and monitoring the response, i.e., \"flicking\" (removing) of the tail from the source of the stimulus. The reaction time (latency) of the response was first measured without the administration of any drug composition, and repeated fifteen minutes after the administration of compositions of the invention wherein the components of the compositions are in various ratios. Each mouse was only subjected to one pre- and post-administration test.\nThe analysis of possible superadditivity for the compositions at each fixed ratio was determined as disclosed by R. J. Tallarida et al., Life Sci., 45, 947 (1989). This procedure involved determination of the total amount in the mixture that is required to produce a specified level of effect, such as 50% (ED50mix), and the corresponding total amount that would be expected under simple additivity (ED50add). Where it was established that ED50mix <ED50add for a specific fixed-ratio,then that composition ratio is superadditive. Both the 1quantities ED50mix and ED50add were random variables; ED50mix was estimated from the dose-response curve for a specific fixed-ratio; ED50add was obtained by combining the ED50 estimates for the two drugs under additivity. ED50mix was then compared to ED50add via a t-test. […] The interaction between tramadol and codeine or […] were determined at precise dosage ratios of tramadol hydrochloride and codeine or oxycodone. Multiple (typically 4-6) coded doses of each selected combination were studied for analgesic effectiveness after 15 minutes using an experimental design which permitted the complete randomization of the separate dosage forms tested.\nIn the Figures, the diagonal line joining the ED50 values of the two drugs given separately represents the simple additivity of a composition effects at different component ratio. The dotted adjacent lines to the diagonal line define the 95% confidence interval. ED50's falling under the curve (between the line and the origin) indicate superadditivity, i.e., unexpected enhancement of effects. The diagonal dashed lines radiating from the origin represent the dose ratios of tramadol hydrochloride to codeine phosphate (FIG. 1) or oxycodone sulfate (FIG. 2) used in mice receiving the combined drug dosages. The bars through the ED50 points for tramadol and codeine or oxycodone compositions represent the 95% confidence intervals of the ED50."}, "[2]": {"conditions": "in vivo; cited from earlier work"}, "[3]": {"conditions": "drug alone, p.o., tail-flick, mice, 15 min"}}, "note": "Like-named read-outs stand apart in the source and are kept apart here."}
{"molecule": "COc1ccc2c3c1O[C@H]1[C@@H](O)C=C[C@H]4[C@@H](C2)N(C)CC[C@@]341", "note": "[Codeine only]", "values": [{"measurement": "ED50", "setting": "[1]; [3]", "value": 71.3, "unit": "mg/kg"}, {"measurement": "Analgesia", "setting": "[1]; codeine 10 mg/kg p.o., 15 min", "value": "0/10"}, {"measurement": "Analgesia", "setting": "[1]; codeine 20 mg/kg p.o., 15 min", "value": "1/10"}, {"measurement": "Analgesia", "setting": "[1]; codeine 40 mg/kg p.o., 15 min", "value": "1/10"}, {"measurement": "Analgesia", "setting": "[1]; codeine 80 mg/kg p.o., 15 min", "value": "5/10"}, {"measurement": "Analgesia", "setting": "[1]; codeine 160 mg/kg p.o., 15 min", "value": "10/10"}, {"measurement": "side effects", "setting": "[2]", "value": "respiratory depression, constipation, tolerance and abuse liability"}]}
{"molecule": "COc1cccc(C2(O)CCCCC2CN(C)C)c1", "note": "(stereo not drawn) [tramadol only, (1RS, 2RS) trans-2-[(dimethylamino)-methyl]-1-(3-methoxyphenyl)cyclohexanol]", "values": [{"measurement": "ED50 at 15 min (95% Cl's), Tramadol", "setting": "[1]; Table I (tramadol:codeine), p.o., 15 min", "value": 76.8, "unit": "mg/kg"}, {"measurement": "ED50 at 15 min (95% Cl's), Tramadol", "setting": "[1]; Table II (tramadol:oxycodone), p.o., 15 min", "value": 76.8, "unit": "mg/kg"}, {"measurement": "ED50 (95% confidence interval), drug alone", "setting": "[1]; [3]", "value": "76.8 (59.2-99.7) mg/kg"}]}
{"molecule": "COc1ccc2c3c1O[C@H]1C(=O)CC[C@H]4[C@@H](C2)N(C)CC[C@]314", "note": "[hydrocodone]", "values": [{"measurement": "side effects", "setting": "[2]", "value": "respiratory depression, constipation, tolerance and abuse liability"}]}
{"molecule": "COc1ccc2c3c1O[C@H]1C(=O)CC[C@@]4(O)[C@@H](C2)N(C)CC[C@]314", "note": "[oxycodone only]", "values": [{"measurement": "ED50", "setting": "[1]", "value": 4.2, "unit": "mg/kg"}, {"measurement": "Analgesia", "setting": "[1]; oxycodone 0.5 mg/kg p.o., 15 min", "value": "0/10"}, {"measurement": "Analgesia", "setting": "[1]; oxycodone 1 mg/kg p.o., 15 min", "value": "2/20"}, {"measurement": "Analgesia", "setting": "[1]; oxycodone 2 mg/kg p.o., 15 min", "value": "3/10"}, {"measurement": "Analgesia", "setting": "[1]; oxycodone 3 mg/kg p.o., 15 min", "value": "2/10"}, {"measurement": "Analgesia", "setting": "[1]; oxycodone 6 mg/kg p.o., 15 min", "value": "5/10"}, {"measurement": "Analgesia", "setting": "[1]; oxycodone 10 mg/kg p.o., 15 min", "value": "9/10"}, {"measurement": "Analgesia", "setting": "[1]; oxycodone 20 mg/kg p.o., 15 min", "value": "10/10"}, {"measurement": "Analgesia", "setting": "[1]; oxycodone 30 mg/kg p.o., 15 min", "value": "10/10"}, {"measurement": "side effects", "setting": "[2]", "value": "respiratory depression, constipation, tolerance and abuse liability"}]}
